Structures can show the parent of a compound that is named as a salt. Where two headings read alike, the source gives them in different places.
Experiments:
[1] = tested on: BCRP-overexpressing cells (Flp-In-293/BCRP); assay: Influence on anti-cancer agent (SN-38) resistance in BCRP-overexpressing cells, MTT assay; assay type: cell-based; details: Flp-In-293/ABCG2 cells; for degree of reversing resistance to SN-38: at the concentration of 5 μmol/L, 72 hours
BCRP [2] = target: T1, BCRP (Homo sapiens, UniProt Q9UNQ0); assay: BCRP-mediated methotrexate transport in membrane vesicles of BCRP-expressing Sf9 cells; details: for inhibitory action on BCRP-mediated methotrexate transport: at concentration of 100 μmol/L
T1 sequence (Q9UNQ0 1-655): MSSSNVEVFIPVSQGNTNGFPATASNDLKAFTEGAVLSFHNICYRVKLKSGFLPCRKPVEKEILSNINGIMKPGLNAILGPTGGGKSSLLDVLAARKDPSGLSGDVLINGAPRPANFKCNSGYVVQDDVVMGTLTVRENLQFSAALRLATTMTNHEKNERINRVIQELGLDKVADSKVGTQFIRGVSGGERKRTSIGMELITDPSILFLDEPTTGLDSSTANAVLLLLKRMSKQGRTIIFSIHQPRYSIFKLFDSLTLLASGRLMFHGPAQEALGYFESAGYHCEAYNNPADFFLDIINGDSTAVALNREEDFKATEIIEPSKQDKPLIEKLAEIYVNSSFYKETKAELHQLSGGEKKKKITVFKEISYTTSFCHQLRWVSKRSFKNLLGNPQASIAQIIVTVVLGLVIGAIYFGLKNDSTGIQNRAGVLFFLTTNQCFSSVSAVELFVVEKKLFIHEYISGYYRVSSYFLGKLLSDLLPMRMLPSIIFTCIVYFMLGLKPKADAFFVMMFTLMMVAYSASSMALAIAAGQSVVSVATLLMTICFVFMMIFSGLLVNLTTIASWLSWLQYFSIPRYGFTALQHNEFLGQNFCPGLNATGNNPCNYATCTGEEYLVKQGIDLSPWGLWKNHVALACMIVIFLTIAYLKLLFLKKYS
Procedure: (§1) In the experiment, plasma membrane was prepared from BCRP-expressing Sf9 cells.
(§2) The activity of methotrexate transport was measured using 96 wells-plate according to the following method.
(§3) Preparation and Composition of Reaction Solution
(§4) 50 μL of solution containing sucrose (250 mmol/L) and Tris/Hepes (10 mmol/L, pH: 7.4)
(§5) 30 μL of solution containing ATP (3.33 mmol/L), creatine phosphate (33.3 mmol/L), and MgCl2 (33.3 mmol/L)
(§6) (or solution containing creatine phosphate (33.3 mmol/L) and MgCl2 (33.3 mmol/L))
5 μL of creatine kinase (2 mg/mL)
(§7) 2 μL of [^3H]methotrexate (10 mmol/L, final concentration: 200 μmol/L)
(§8) 10 μL of membrane sample of BCRP-expressing Sf9 cells (total protein: 50 μg)
(§9) The reaction solution was incubated at 37° C. for 20 minutes. 1 mL of ice-cooled solution containing sucrose (250 mmol/L), EDTA (2 mmol/L), and Tris/Hepes (10 mmol/L, pH: 7.4) was quickly added to the reaction solution to stop the reaction. Each 270 μL of the mixed solution was poured into each well of MultiScreen™ (Millipore), and sucked. The wells were washed four times with 200 μL of ice-cooled solution containing sucrose (250 mmol/L) and Tris/Hepes (10 mmol/L, pH: 7.4). The radioactivity trapped on a filter of each well was measured. The amount of methotrexate transported into the membrane vesicle was calculated from the radioactivity.

Flp-In-293/ABCG2 cells = assay: Toxicity to the cells (viability, MTT assay); details: at or up to the concentration of 10 μmol/L
BCRP [3] = target: T1, BCRP
Procedure: as §1, §2, §3, §4, §5, §6
5 μL of creatine kinase (2 mg/mL)
as §7, §8, §9

Row | Compound | IC50 (BCRP [2]) [nM] | effect of overcoming resistance to SN-38 (in words) [1] | degree of reversing resistance to SN-38 [1] | toxicity to the cells / effect on viability (Flp-In-293/ABCG2 cells) | also measured
1 | N#Cc1cc(-c2nc3c([O-])ncnc3s2)ccc1Oc1ccc(F)cc1.[K+] [Compound 1, potassium salt of 2-[3-cyano-4-(4-fluorophenoxy)phenyl]-4-hydroxythiazolo[5,4-d]pyrimidine] |  | reversed the resistance of Flp-In-293/ABCG2 cells to SN-38 in a concentration-dependent manner | about 96% | did not affect viability | IC50 (BCRP [2]; read-out: IC50 (concentration inhibiting methotrexate transport by 50%), [3H]methotrexate 200 μmol/L, 37° C., 20 minutes): 460 nM
2 | N#Cc1cc(-c2nc3cncnc3s2)ccc1Oc1ccc(F)cc1 [Compound 2, 2-[3-cyano-4-(4-fluorophenoxy)phenyl]thiazolo[5,4-d]pyrimidine] | 1100 | reversed the resistance of Flp-In-293/ABCG2 cells to SN-38 in a concentration-dependent manner | about 90% |  | 
3 | N#Cc1cc(-c2nc3c(O)ncnc3s2)ccc1Oc1ccccc1 [Compound 3, potassium salt of 2-(3-cyano-4-phenoxyphenyl)-4-hydroxythiazolo[5,4-d]pyrimidine] |  |  |  |  | IC50 (BCRP [3]): 230 nM
4 | N#Cc1cc(-c2nc3c(O)ncnc3s2)ccc1Oc1ccccc1 [Compound 5, 2-(3-cyano-4-phenoxyphenyl)-4-hydroxythiazolo[5,4-d]pyrimidine] |  |  | about 96% | did not exhibit toxicity to the cells | 
5 | CC(C)(C)COc1ccc(-n2cc(C(=O)O)cn2)cc1C#N [Compound Y-700, 1-[3-cyano-4-(2,2-dimethylpropoxy)phenyl]-1H-pyrazole-4-carboxylic acid] |  | did not exhibit an effect of overcoming the resistance in the concentration not exhibiting toxicity to the cells |  |  | 
6 | Cc1nc(-c2ccc(OCC(C)C)c(C#N)c2)sc1C(=O)O [TMX-67, Febuxostat] | 250 |  | about 82% | did not exhibit toxicity to the cells | 
7 | Oc1ncnc2[nH]ncc12 [allopurinol] |  | did not exhibit an effect of overcoming resistance to SN-38 |  | did not exhibit toxicity to the cells | inhibitory action on BCRP-mediated methotrexate transport (BCRP [2]): did not exhibit an inhibitory action
8 | O=c1[nH]c(=O)c2c[nH]nc2[nH]1 [oxypurinol] |  | did not exhibit an effect of overcoming resistance to SN-38 |  |  | inhibitory action on BCRP-mediated methotrexate transport (BCRP [2]): did not exhibit an inhibitory action

Now from value to molecule, other results behind:

Row | IC50 (BCRP [2]) [nM] | Compound | effect of overcoming resistance to SN-38 (in words) [1] | degree of reversing resistance to SN-38 [1] | toxicity to the cells / effect on viability (Flp-In-293/ABCG2 cells) | also measured
9 | 660 | N#Cc1cc(-c2nc3cncnc3s2)ccc1Oc1ccccc1 [Compound 4, 2-(3-cyano-4-phenoxyphenyl)thiazolo[5,4-d]pyrimidine] |  |  |  | 
10 | 770 | N#Cc1cc(-c2n[nH]c(-c3ccncc3)n2)ccn1 [FYX-051, 4-[5-pyridin-4-yl-1H-[1,2,4]triazol-3-yl]pyridine-2-carbonitrile] |  | about 39% |  | 

From US8314085B2, “Agent for overcoming resistance to anti-cancer agent” (Nippon Chemiphar Co., Ltd., priority 2006, dated 2012)
